In patent publication EP0880540B1, “17-BETA-CYCLOPROPYL(AMINO/OXY) 4-AZA STEROIDS AS ACTIVE INHIBITORS OF TESTOSTERONE 5-ALPHA-REDUCTASE AND C17-20-LYASE” (Aventis Pharmaceuticals Inc., priority 1996, dated 1997):

Key:
[1] = tested on: Dunning H Tumor; assay: Dunning H tumor growth in rats; type: in vivo, male Copenhagen rats; conditions: MDL 105831 15 mg/kg/day PO, MDL 15910 50 mg/kg/day PO
Description: As described in J.T. Isaacs & D.S. Coffey, Cancer Res. 41:5070-5075 (1981); W.J. Ellis & J.T. Issacs, Cancer Res. 45:6041-6050 (1985); T.W. Bedding & A.V. Schally, The Prostate 6:219-232 (1985) and P.E. Juniewicz et al. The Prostate 18:105-115 (1991), male Copenhagen rats were obtained from HARLAN-SPRAGUE-DAWLEY Inc. (Indianapolis, IN), and were individually housed in suspended wire cages and provided laboratory rodent chow (Purina 5001 pellets, Purina Mills, St. Louis, MO) and deionized water ad libum. The rats were anesthetized using sodium pentobarbital and the hair was clipped from the back dorsal area. Tumors from donor Copenhagen rats were cut into fragments of 10 mm^3 and implanted subcutaneously (one site per rat) into the prepared dorsal area.
Animals were selected (105 days post implantation) for the treatment phase based on tumor size. Ten animals were anesthetized with sodium pentobarbital and bilaterally castrated. The remaining animals were assigned to treatment groups (ten per group) based on mean group tumor size. Animals were kept separate throughout the study. The tested compounds were prepared in solution or suspension in a lecithin vehicle (L-α-phosphatidylcholine type XV-E) containing methylparaben and propylparaben. All treatments were performed by oral gavage (per os) at 2 cc/kg each day of study. Tumor size and rat body weights were recorded every seven days over a period of 35 days. Twenty-four hours after the last treatment animals were euthenized by CO2 and the tumors, prostate, seminal vesicles and testes were removed and weighed. In Table 4, average tumor growth is determined from the corrected group means over a 35 day period after treatment was started. […] The animals eliminated from the calculation of the corrected means were in Figure 6, animals 8, 9, 10; in Figure 7, animals 18, 19 and 20; in Figure 8, animals 27, 28, 29 and 30; and in Figure 9, animals 37, 39 and 40. The castrated controls in Figure 10 present a different problem. Here it is believed that the different tumor volumes observed throughout the group is attributable to the different sizes at the beginning of the study. Since the mean variance here is clearly attributable to factors other than the effect of the castration itself, animals 47, 48, 49 and 50 were deleted from the corrected mean. Of these, animal 47 died during the treatment period.
Table 4 indicates the average daily growth rate, measured from the corrected mean tumor size on day 35 and day 0, comparing MDL 105831 and flutamide (MDL 15910), a known androgen receptor antagonist. […]

[2] = target: T1, cynomolgus monkey prostatic 5α-reductase (Macaca fascicularis, UniProt Q28892); assay: In vitro 5α-reductase assay, prostate microsomes; type: biochemical; conditions: mean of duplicates
T1 construct: microsomal preparations of the 5α-reductase enzyme from laboratory animal prostate tissue; from tissue; host or cells: cynomolgus monkey prostate, microsomes
T1 sequence (Q28892 1-254): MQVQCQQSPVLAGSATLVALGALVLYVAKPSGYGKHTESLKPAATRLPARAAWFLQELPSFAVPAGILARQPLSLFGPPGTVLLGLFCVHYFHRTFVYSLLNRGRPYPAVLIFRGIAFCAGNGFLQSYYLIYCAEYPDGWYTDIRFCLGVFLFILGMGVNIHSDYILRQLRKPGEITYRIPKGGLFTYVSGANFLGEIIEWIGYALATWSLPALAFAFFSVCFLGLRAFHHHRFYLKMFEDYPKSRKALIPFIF
Protocol: In vitro 5α-reductase assays: The activity of the present compounds as inhibitors of steroid 5α-reductase was determined using microsomal preparations of the 5α-reductase enzyme from laboratory animal prostate tissue. Specifically, microsomes were isolated from cynomolgus monkey prostate tissue. Protein concentration of the microsomal preparations was determined prior to use of the samples. Individual assays of cynomolgus monkey prostatic 5α-reductase activity contained 0.1 M potassium phosphate-sodium citrate buffer, pH 5.6 1.0% (w/v) bovine serum albumin, […] sodium EDTA, 4 µg of microsomal protein, 1.0 mM NADPH, 5.0 mM glucose-6-phosphate, 1 IU/mL glucose-6-phosphate dehydrogenase, [1,2-^3H]-testosterone (0.15 µCi) plus unlabeled testosterone to yield 0.015 µM (Km = 0.015 µM to 0.091 µM in multiple determinations), and test compound which was dissolved in DMSO then diluted in 0.1 M potassium phosphate-sodium citrate buffer, pH 5.6, to yield a final assay concentration of 0.1% (v/v) DMSO. The same buffer and DMSO without test compound were used in control assays. Background radioactivity was determined from assays containing all components except enzyme. Assays were performed in duplicate. Microsomes, 0.1 M potassium phosphate-sodium citrate buffer, pH 5.6, and test compound were preincubated at 37°C. Aliquots of 180 µL were removed after 0 or 40 minutes of preincubation and added to […] of testosterone substrate suspended in 0.1 M potassium phosphate-sodium citrate buffer, pH 5.6, containing 10% (v/v) DMSO. Remaining enzyme activity was assayed for 10 minutes at 37°C in a Dubnoff shaker incubator.
The reactions were terminated by the addition of 5 mL CHCl3:methanol (2:1) and 0.9 mL water. Carrier steroids were added in the form of 2.5 µg each of testosterone, dihydrotestosterone, and 3,17-androstanediol. Steroid metabolites were then extracted according to the procedure of Moore and Wilson (Methods in Enzymol., O'Malley, B.W. and Hardman, J.G. eds., 36, 1975, pp. 466-474), the organic phase containing the steroids was evaporated using nitrogen gas, the residues were dissolved in 3% (v/v) isopropanol in hexane. The steroids were then separated by normal phase HPLC on a LiCrosorb® DIOL derivatized silica gel column (10 µm; 4 x 250 mm) with a 3% to 7.5% isopropanol in hexane gradient, followed by isocratic conditions of […] isopropanol in hexane. Radioactivity in the steroid peaks was measured using a Packard Radiomatic model HS Flo-One detector. When the compound were tested using the above procedures with cynomolgus monkey 5α-reductase, the following results were obtained: Table 2: […]

Row | SMILES | Tumor Growth in Dunning H Rat, Day 0 ([1]; Day 0 (baseline), corrected group mean) [mm^3] | Tumor Growth in Dunning H Rat, Day 7 ([1]; Day 7, corrected group mean) [mm^3] | Tumor Growth in Dunning H Rat, Day 16 ([1]; Day 16, corrected group mean) [mm^3] | Tumor Growth in Dunning H Rat, Day 21 ([1]; Day 21, corrected group mean) [mm^3] | Tumor Growth in Dunning H Rat, Day 29 ([1]; Day 29, corrected group mean) [mm^3] | Tumor Growth in Dunning H Rat, Day 35 ([1]; Day 35, corrected group mean) [mm^3] | Δv/Δt (day 35-day 0) ([1]; average daily growth rate from corrected mean tumor size) [mm^3/day] | inhibition at 0.1 µM ([2]; preincubation 0 min) [%] | inhibition at 0.1 µM ([2]; preincubation 40 min) [%] | inhibition at 1 µM ([2]; preincubation 0 min) [%] | inhibition at 1 µM ([2]; preincubation 40 min) [%] | inhibition at 10 µM ([2]; preincubation 0 min) [%] | inhibition at 10 µM ([2]; preincubation 40 min) [%]
1 | C[C@]12CC[C@H]3[C@@H](CC=C4NC(=O)CC[C@@]43C)[C@@H]1CC[C@@H]2NC1CC1 [MDL 105,831, 17β-Cyclopropylamino-4-aza-androst-5-en-3-one] | 328.40 | 389.90 | 497.20 | 759.40 | 1135.80 | 1041.60 | 20.38 | – | – | – | – | – | –
2 | CC12CCC3C(CC[C@H]4NC(=O)CCC34C)C1CC[C@@H]2OC1CC1 (stereo partly drawn) [MDL 103,432, 17β-Cyclopropyloxy-4-aza-5α-androstan-3-one] | – | – | – | – | – | – | – | 78.7 | 80 | 98.7 | 99.3 | 99.4 | 99.4
